Reference: patent US8399681B2, “Substituted aminothiazolone indazoles as estrogen related receptor-alpha modulators” (Janssen Pharmaceutica NV, priority 2009, dated 2013)

Molecular target: T1, ERR1 (also known as ERR-α or ERR-1) (Homo sapiens, UniProt P11474)
T1 sequence (P11474 193-421 limits assumed): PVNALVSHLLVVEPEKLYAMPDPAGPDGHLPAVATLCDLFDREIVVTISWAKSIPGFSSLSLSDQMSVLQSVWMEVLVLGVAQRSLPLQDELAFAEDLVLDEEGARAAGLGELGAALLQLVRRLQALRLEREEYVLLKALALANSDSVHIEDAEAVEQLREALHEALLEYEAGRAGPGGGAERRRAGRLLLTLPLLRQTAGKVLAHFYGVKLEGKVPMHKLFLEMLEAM
Assay: TR-FRET assay (disruption of co-activator peptide binding)
Assay type: biochemical
Details: 6His-tagged ERR1 LBD, GST-hSRC2 co-activator polypeptide; average of 3 independent experiments
Method in brief: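 His6-ERR1 LBD (6 nM) with GST-SRC-2 peptide (6 nM), anti-GST Eu cryptate (30 nM) and anti-His XL665 (7.5 nM) in Tris pH 8/KCl/DTT/BSA buffer, equilibrated 4-18 h at 25 °C. Ex 340, em 615/665 nm; hyperbolic dose-response fit, mean of 3 experiments.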

Structure (SMILES)	EC50 [nM]
O=C1N=C(N2C[C@@H](F)C[C@H]2C(=O)O)S/C1=C\c1ccc2c(cnn2Cc2ccc(Cl)cc2C(F)(F)F)c1 [Example 189, 1-[5-({1-[4-Chloro-2-(trifluoromethyl)benzyl]-1H-indazol-5-yl}methylidene)-4-oxo-4,5-dihydro-1,3-thiazol-2-yl]-4-(S)-fluoro-L-proline]	24
C[C@@H]1CN(C2=NC(=O)/C(=C/c3ccc4c(cnn4Cc4ccc(C(F)(F)F)cc4C(F)(F)F)c3)S2)C[C@H](C)[N+]1(C)C [Example 240, (2R,6S)-4-[5-({1-[2,4-Bis(trifluoromethyl)benzyl]-1H-indazol-5-yl}methylidene)-4-oxo-4,5-dihydro-1,3-thiazol-2-yl]-1,1,2,6-tetramethylpiperazin-1-ium chloride]	9
CC(=O)OC[C@@H]1CN(C2=NC(=O)/C(=C/c3ccc4c(cnn4Cc4ccc(C(F)(F)F)cc4C(F)(F)F)c3)S2)CCO1 [Example 280, {(2S)-4-[5-({1-[2,4-Bis(trifluoromethyl)benzyl]-1H-indazol-5-yl}methylidene)-4-oxo-4,5-dihydro-1,3-thiazol-2-yl]morpholin-2-yl}methyl acetate]	3
CN1CCN(C2=NC(=O)/C(=C/c3ccc4c(cnn4Cc4ccc(C(F)(F)F)cc4C(F)(F)F)c3)S2)[C@@H](CO)C1 [Example 253, 5-({1-[2,4-Bis(trifluoromethyl)benzyl]-1H-indazol-5-yl}methylidene)-2-[(2R)-2-(hydroxymethyl)-4-methylpiperazin-1-yl]-1,3-thiazol-4(5H)-one]	5
CN1CCN(C2=NC(=O)/C(=C/c3ccc4c(cnn4Cc4ccc(Br)cc4C(F)(F)F)c3)S2)CC1 [Example 26, 5-[1-(4-Bromo-2-trifluoromethyl-benzyl)-1H-indazol-5-ylmethylene]-2-(4-methyl-piperazin-1-yl)-thiazol-4-one]	4.8
CN1CCN(C2=NC(=O)/C(=C/c3ccc4c(cnn4Cc4ccc(Cl)cc4C(F)(F)F)c3)S2)CC1(C)C [Example 221, 5-({1-[4-Chloro-2-(trifluoromethyl)benzyl]-1H-indazol-5-yl}methylidene)-2-(3,3,4-trimethylpiperazin-1-yl)-1,3-thiazol-4(5H)-one]	7
CNC1CN(C2=NC(=O)/C(=C/c3ccc4c(cnn4Cc4ccc(Cl)cc4C(F)(F)F)c3)S2)C1 [Example 270, 5-({1-[4-Chloro-2-(trifluoromethyl)benzyl]-1H-indazol-5-yl}methylidene)-2-[3-(methylamino)azetidin-1-yl]-1,3-thiazol-4(5H)-one]	8
Cc1nnc(C)n1C1CCN(C2=NC(=O)/C(=C/c3ccc4c(cnn4Cc4ccc(Cl)cc4C(F)(F)F)c3)S2)CC1 [Example 147, 5-[1-(4-Chloro-2-trifluoromethyl-benzyl)-1H-indazol-5-ylmethylene]-2-[4-(3,5-dimethyl-[1,2,4]triazol-4-yl)-piperidin-1-yl]-thiazol-4-one]	11
NC(=O)CN1CCN(C2=NC(=O)/C(=C/c3ccc4c(cnn4Cc4ccc(Cl)cc4C(F)(F)F)c3)S2)CC1 [Example 79, 2-(4-{5-[1-(4-Chloro-2-trifluoromethyl-benzyl)-1H-indazol-5-ylmethylene]-4-oxo-4,5-dihydro-thiazol-2-yl}-piperazin-1-yl)-acetamide]	9
O=C1N=C(N2CCC[C@H](NCC(F)F)C2)S/C1=C\c1ccc2c(cnn2Cc2ccc(C(F)(F)F)cc2C(F)(F)F)c1 [Example 266, 5-({1-[2,4-Bis(trifluoromethyl)benzyl]-1H-indazol-5-yl}methylidene)-2-{(3S)-3-[(2,2-difluoroethyl)amino]piperidin-1-yl}-1,3-thiazol-4(5H)-one]	24
C=C(C)c1ccc(Cn2ncc3cc(/C=C4\SC(N5CCN[C@@H](CO)C5)=NC4=O)ccc32)c(C(F)(F)F)c1 [Example 247, 2-[3-(R)-(Hydroxymethyl)piperazin-1-yl]-5-({1-[4-(1-methylethenyl)-2-(trifluoromethyl)benzyl]-1H-indazol-5-yl}methylidene)-1,3-thiazol-4(5H)-one]	41
Cc1nn(Cc2ccc(Cl)cc2C(F)(F)F)c2ccc(/C=C3\SC(N4CCO[C@H](CO)C4)=NC3=O)cc12 [Example 181, 5-[1-(4-Chloro-2-trifluoromethyl-benzyl)-3-methyl-1H-indazol-5-ylmethylene]-2-(2-(S)-hydroxymethyl-morpholin-4-yl)-thiazol-4-one]	16
Cc1nn(Cc2ccc(Cl)cc2C(F)(F)F)c2ccc(/C=C3\SC(N4CCN[C@@H](CO)C4)=NC3=O)cc12 [Example 183, 5-[1-(4-Chloro-2-trifluoromethyl-benzyl)-3-methyl-1H-indazol-5-ylmethylene]-2-(3-(R)-hydroxymethyl-piperazin-1-yl)-thiazol-4-one]	4.9
O=C1N=C(N2CCO[C@H](CO)C2)S/C1=C\c1ccc2c(c1)c(I)nn2Cc1ccc(C(F)(F)F)cc1C(F)(F)F [Example 175, 5-[1-(2,4-Bis-trifluoromethyl-benzyl)-3-iodo-1H-indazol-5-ylmethylene]-2(S)-(2-hydroxymethyl-morpholin-4-yl)-thiazol-4-one]	5
O=C1N=C(N2CCC(C(=O)O)C2)S/C1=C\c1ccc2c(cnn2Cc2ccc(Cl)cc2C(F)(F)F)c1 (centres unmarked) [Example 137, 1-{5-[1-(4-Chloro-2-trifluoromethyl-benzyl)-1H-indazol-5-ylmethylene]-4-oxo-4,5-dihydro-thiazol-2-yl}-pyrrolidine-3-carboxylic acid]	14
CN1CCN(C2=NC(=O)/C(=C/c3ccc4c(c3)c(C#N)nn4Cc3ccc(Cl)cc3C(F)(F)F)S2)CC1(C)C [Example 222, 1-[4-Chloro-2-(trifluoromethyl)benzyl]-5-{[4-oxo-2-(3,3,4-trimethylpiperazin-1-yl)-1,3-thiazol-5(4H)-ylidene]methyl}-1H-indazole-3-carbonitrile]	20
COCC(=O)N1[C@H](C)CN(C2=NC(=O)/C(=C/c3ccc4c(cnn4Cc4ccc(Cl)cc4C(F)(F)F)c3)S2)C[C@@H]1C [Example 88, 5-[1-(4-Chloro-2-trifluoromethyl-benzyl)-1H-indazol-5-ylmethylene]-2-[4-(2-methoxy-acetyl)cis-3,5-dimethyl-piperazin-1-yl]-thiazol-4-one]	13
O=C1N=C(N2C[C@@H]3C[C@H]2CN3)S/C1=C\c1ccc2c(cnn2Cc2ccc(C(F)(F)F)cc2C(F)(F)F)c1 [Example 69, 5-[1-(2,4-Bis-trifluoromethyl-benzyl)-1H-indazol-5-ylmethylene]-2-(2S,5S-diaza-bicyclo[2.2.1]hept-2-yl)-thiazol-4-one]	26
CN(C)CC1(O)CCN(C2=NC(=O)/C(=C/c3ccc4c(cnn4Cc4ccc(Cl)cc4C(F)(F)F)c3)S2)CC1 [Example 163, 5-[1-(4-Chloro-2-trifluoromethyl-benzyl)-1H-indazol-5-ylmethylene]-2-(4-dimethylaminomethyl-4-hydroxy-piperidin-1-yl)-thiazol-4-one]	26
O=C1N=C(N2CCCN(CCF)CC2)S/C1=C\c1ccc2c(cnn2Cc2ccc(Cl)cc2C(F)(F)F)c1 [Example 133, 5-[1-(4-Chloro-2-trifluoromethyl-benzyl)-1H-indazol-5-ylmethylene]-2-[4-(2-fluoro-ethyl)-[1,4]diazepan-1-yl]-thiazol-4-one]	4.1
NCC1CN(C2=NC(=O)/C(=C/c3ccc4c(cnn4Cc4ccc(C(F)(F)F)cc4C(F)(F)F)c3)S2)CCO1 (centres unmarked) [Example 201, 2-[2-(Aminomethyl)morpholin-4-yl]-5-({1-[2,4-bis(trifluoromethyl)benzyl]-1H-indazol-5-yl}methylidene)-1,3-thiazol-4(5H)-one]	47
O=C1N=C(N2CCNCC(O)C2)S/C1=C\c1ccc2c(cnn2Cc2ccc(C(F)(F)F)cc2C(F)(F)F)c1 (centres unmarked) [Example 151, 5-[1-(2,4-Bis-trifluoromethyl-benzyl)-1H-indazol-5-ylmethylene]-2-(6-hydroxy-[1,4]diazepan-1-yl)thiazol-4-one]	25.7
CCOC(=O)N1CCCN(C2=NC(=O)/C(=C/c3ccc4c(cnn4Cc4ccc(C(F)(F)F)cc4C(F)(F)F)c3)S2)CC1 [Example 129, 4-{5-[1-(2,4-Bis-trifluoromethyl-benzyl)-1H-indazol-5-ylmethylene]-4-oxo-4,5-dihydro-thiazol-2-yl}-[1,4]diazepane-1-carboxylic acid ethyl ester]	28
CN1C2CCC1CN(C1=NC(=O)/C(=C/c3ccc4c(cnn4Cc4ccc(Cl)cc4C(F)(F)F)c3)S1)C2 [Example 101, 5-[1-(4-Chloro-2-trifluoromethyl-benzyl)-1H-indazol-5-ylmethylene]-2-(8-methyl-3,8-diaza-bicyclo[3.2.1]oct-3-yl)-thiazol-4-one]	21.4
COc1ccc(Cn2ncc3cc(/C=C4\SC(N5CCC[C@@H]5C(=O)O)=NC4=O)ccc32)c(C(F)(F)F)c1 [Example 45, 1-{5-[1-(4-M ethoxy-2-trifluoromethyl-benzyl)-1H-indazol-5-ylmethylene]-4-oxo-4,5-dihydro-thiazol-2-yl}-pyrrolidine-2-(R)-carboxylic acid]	34
O=C1N=C(N2CCN[C@H](CO)C2)S/C1=C\c1ccc2c(cnn2Cc2ccc(C(F)(F)F)cc2C(F)(F)F)c1 [Example 200, 5-({1-[2,4-Bis(trifluoromethyl)benzyl]-1H-indazol-5-yl}methylidene)-2-[3-(S)-(hydroxymethyl)piperazin-1-yl]-1,3-thiazol-4(5H)-one]	13
